Test results taken from patent US12679825B2, “Crystalline and amorphous forms of a δ-opioid modulator” (Trevena, Inc., priority 2020, dated 2026).
Entries after “also recorded” stand apart in the source; their conditions may differ. Where two headings read alike, the source gives them in different places.

Legend:
Assay type in all cases: physicochemical
[1] = 14-day stability testing (XRPD, HPLC, appearance); parameters: key to XRPD after storage: CRY: Crystalline; details: 14 days; for Post-Storage Observations (appearance): input White solid (NE12); for 14-Day Stability, Solid Purity after storage: open vial, input 98.9% area
Method: Crystalline forms of the compound of Formula I, including the crystalline Form I, were analyzed regarding stability. Approximately 10 mg of free base Form I was subjected to 14-day stability testing under the following conditions to assess developability: • 40° C./75% RH (open vial); • Ambient light, temperature and humidity conditions (open vial).
After 2 weeks under the specified conditions, XRPD and HPLC analysis was carried out on the resultant solid material. The sample appearance was monitored over 14 days.

[2] = Potentiometric (pH-metric) LogP and logD profile; details: for logP: 25.0±0.2° C.
Method: (§1) Crystalline forms of the compound of Formula I, including the crystalline Form I, were analyzed using pKa and LogP. An automated titrator system with an incorporated UV-Vis spectrometer (SiriusT3™, Pion Inc.) was used to acquire the spectrometric and potentiometric data. The optical system consisted of a photodiode array detector with a deuterium lamp and a fiber optic dip probe.
(§2) The titrator module consisted of a temperature controller (by Peltier device with in-situ thermocouple), pH electrode, an overhead stirrer, and motorized dispensers for the automatic delivery of assay titrants and reagents via capillaries. The instrumentation was operated using SiriusT3Control software (V2.0). Data processing and generation of the reported pKa and logP values was carried out using SiriusT3Refine software (V2.0). The titrants used were 0.5 M hydrochloric acid and 0.5 M potassium hydroxide, standardized using potassium hydrogen phthalate. ACS or HPLC grade methanol cosolvent was used for pKa determination. Spectrophotometric experiments were carried out in the presence of a mid-range buffer solution (15 mM di-potassium hydrogen orthophosphate) or Neutral Linear Buffer™ to prevent uncontrolled pH-drift at mid-range pH. For logP assays, ACS or HPLC grade 1-octanol was used as the partition solvent.
All experiments were carried out at a controlled temperature of 25.0±0.2° C. The pH range of titration assays is set between pH 2.0 to pH 12.0 unless otherwise stated. Prior to use, 0.5 M KOH base titrant is standardized by the titration of approximately 15 mg of potassium hydrogen phthalate, in triplicate. 0.5 M HCl titrant is subsequently standardized against the base titrant. The assay media for pKa determination is kept at a constant ionic strength of 0.15 M KCl and under argon atmosphere.
0.79 mg of sample was weighed into a 5 mL glass assay vial and titrated in a pH-metric triple titration in the presence of octanol from pH 2.0-12.0 at concentrations of 1.5-0.5 mM. The partition ratios of octanol/water were 0.012:1, 0.038:1 and 0.517:1. LogP was determined by comparing the pKa in water with the apparent pKa in the presence of octanol. The pH-metric logP experiment was conducted at 25.0±0.2° C. A lipophilicity profile (logD vs. pH) of the compound was calculated from the experimentally determined pKa and logP. The logD values are detailed in Table 12.

[3] = Dynamic Vapour Sorption (DVS)
Method: The following results and observations were obtained from this experiment (see Table 4 for further details): • After anti-solvent addition to the solutions at 20° C., the experiment carried out using tBME as the initial solvent system had solid adhered to the vial walls. The experiments carried out using MEK and THF as the initial solvent systems were cloudy, with some oil/gum formation noted. • After temperature cycling overnight, all experiments formed slurries. […] (peak at 98° C.) during the first heat. A glass transition with a mid-point half-height of ca. 32° C. was observed during the first cool. […] The residual tBME could not be quantified, due to overlapping signals with the API. Residual heptane was observed, equal to 0.91% w/w, or 0.05 equivalents. • ^1H NMR spectroscopy of the crystalline Form I isolated from MEK:heptane 20:80 v/v % was consistent with the structure of the compound of Formula I free base. The residual MEK could not be quantified, due to overlapping signals with the API. Residual heptane was observed, equal to 0.51% w/w, or 0.02 equivalents. • ^1H NMR spectroscopy of the crystalline Form I isolated from THF:heptane 22:78 v/v % was consistent with the structure of the compound of Formula I free base. The residual THF could not be quantified, due to overlapping signals with the API.
Crystalline forms of the compound of Formula I, including the crystalline Form I, were analyzed using Dynamic Vapour Sorption (DVS). Approximately 10-15 mg of sample was placed into a mesh vapour sorption balance pan and loaded into a DVS Intrinsic dynamic vapour sorption balance by Surface Measurement Systems. The sample was subjected to a ramping profile from 40-90% relative humidity (RH) at 10% increments, maintaining the sample at each step until a stable weight had been achieved (dm/dt 0.004%, minimum step length 30 minutes, maximum step length 120 minutes) at 25° C. After completion of the sorption cycle, the sample was dried using the same procedure to 0% RH and then a second sorption cycle back to 40% RH was carried out. Two cycles were performed. The weight change during the sorption/desorption cycles were plotted, allowing the hygroscopic nature of the sample to be determined. XRPD analysis was then carried out on the residual solid.

[4] = Potentiometric (pH-metric) pKa; details: pH 2.0-12.0, methanol-water co-solvent, Yasuda-Shedlovsky extrapolation
Method: as §1
as §2, with “Spectrophotometric experiments were carried out in the presence of a mid-range buffer solution (15 mM di-potassium hydrogen orthophosphate) or Neutral Linear Buffer™ to prevent uncontrolled pH-drift at mid-range pH. For logP assays, ACS or HPLC grade 1-octanol was used as the partition solvent.” left out
An additional potentiometric assay was carried out to confirm the pKa. […] The aqueous pKa was extrapolated from the apparent pKa measured in the presence of co-solvents, using the Yasuda-Shedlovsky extrapolation equation. […]

COCCOc1cccc([C@@H]2CCN(CCn3cccc3)[C@H](C)[C@H]2COc2ccc3c(c2)C(=O)NC3)c1 [crystalline Form I, (−)-6-{[(trans, trans)-4-[3-(2-methoxyethoxy)phenyl]-2-methyl-1-[2-(1H-pyrrol-1-yl)ethyl]piperidin-3-yl]methoxy}-2,3-dihydro-1H-isoindol-1-one]
Decrease in purity after storage (HPLC) ([1]; 40° C./75% RH and ambient conditions): ≤ 0.3 % area
14-Day Stability, form by XRPD ([1]; 40° C./75% RH): retained; also recorded: Form I
XRPD after storage ([1]; 40° C./75% RH): CRY
Post-Storage Observations (appearance) ([1]; 40° C./75% RH): White solid (NE12)
14-Day Stability, Solid Purity after storage ([1]; 40° C./75% RH): 99.0 % area
14-Day Stability, Solid Purity after storage ([1]; Ambient light, temperature and humidity): 98.6 % area
14-Day Stability, form by XRPD ([1]; Ambient): retained; also recorded: Form I
XRPD after storage ([1]; Ambient): CRY
Post-Storage Observations (appearance) ([1]; Ambient): White solid (NE12)
logD ([2]; 1-octanol/water, pH 5.000): 1.2
logP ([2]; octanol/water, read-out: LogP (Potentiometric), cationic species): 0.6 ± 0.03
logP ([2]; octanol/water, read-out: LogP (Potentiometric), neutral species): 3.81 ± 0.02
logD ([2]; octanol/water, pH 1.2, pH 1.200, Stomach pH): 0.6
logD ([2]; octanol/water, pH 6.5, pH 6.500): 2.55
logD ([2]; octanol/water, pH 7.4, pH 7.400, Blood pH): 3.31
logD ([2]; octanol/water, pH 1.000): 0.6
logD ([2]; octanol/water, pH 3.000): 0.61
logD ([2]; octanol/water, pH 4.000): 0.71
logD ([2]; octanol/water, pH 6.000): 2.08
logD ([2]; octanol/water, pH 7.000): 3
logD ([2]; octanol/water, pH 8.000): 3.62
logD ([2]; octanol/water, pH 9.000): 3.79
logD ([2]; octanol/water, pH 10.000): 3.81
logD ([2]; octanol/water, pH 11.000): 3.81
logD ([2]; octanol/water, pH 12.000): 3.81
DVS mass uptake ([3]; 25° C./80% RH, material isolated from tBME:heptane 50:50 v/v %): ca. 0.5 % w/w
Water Uptake (DVS, 25° C.) At 25° C./80%, RH ([3]; 25° C./80% RH, tBME:Heptane 50:50): 0.5%
Post-DVS XRPD ([3]; form after DVS analysis): retained; also recorded: Form I
Hygroscopicity (DVS) ([3]; material isolated from tBME:heptane 50:50 v/v %): slightly hygroscopic
Potentiometric (pH-metric) pKa [4]: confirmed the spectrometric pKa
